Values quoted from earlier work, collected in patent US20170304196A1, “ORALLY DISINTEGRATING TABLET AND METHOD FOR PRODUCING SAME” (FUJIFILM CORPORATION, priority 2015, published 2017).

Details: anionic substance

For `CCCCCCCCCCCCOS(=O)(=O)[O-].[Na+]` [sodium lauryl sulfate], the pKa is listed as 1.9.
